Measured values: article PMC6379965, “Expression and activity of the calcitonin receptor family in a sample of primary human high-grade gliomas” (BMC Cancer, 2019)
Ends that are not written are not given here.

Legend:
SB2b cell line [1] = experiment: cAMP accumulation, αCGRP and AM, SB2b; format: cell-based, human; settings: 30 min, 3 to 4 independent experiments in triplicate
Procedure: (§1) Primary patient high-grade glioma (HGG) cell lines, in vitro surrogates of glioblastoma, were developed by QIMR-Berghofer Medical Research Institute (Brisbane, Australia) and represent 3 distinct GBM subtypes: SB2b and PB1 (classical), JK2 (proneural) and WK1(mesenchymal), who supplied these directly for this study. GBM cell lines were cultured as adherent monolayers on matrigel (BD Biosciences)-coated flasks using StemPro NSC SFM serum free cell culture medium (Thermo Fisher Scientific) supplemented with 20 ng/ml EGF and 20 ng/ml FGFb, 1% D-glutamine and 1% of penicillin/ streptomycin (further referred as StemPro complete medium).
GBM cell lines were seeded at 38000 cells/well (SB2b) or 35,000 cells/well (PB1, JK2 and WK1) in 96-well matrigel-coated plates and incubated for 24 h at 37°C, 5% CO2 in humidified incubator in StemPro complete medium. Media was replaced with stimulation buffer (phenol red free F12 media, 0.1% BSA, 0.5 mM IBMX, pH 7.4). […] Cells were lysed (0.3% Tween 20, 5 mM Hepes, 0.1% BSA, pH 7.4) and 5 μl of cell lysate from each well was transferred to a corresponding well of 384-well optiplate. […] Data were analysed by three-parameter logistic curve and are presented as percentage of 10^− 5 M forskolin response.

AM2 (CLR + RAMP3) = settings: receptor AM2, CLR + RAMP3; ref [10], [11], [38]; cited from earlier work
AM1 (CLR + RAMP2) = settings: receptor AM1, CLR + RAMP2; ref [10], [11], [38]; cited from earlier work
CTR = settings: receptor CTR; ref [10], [11], [38]; cited from earlier work
CGRP (CLR + RAMP1) = settings: receptor CGRP, ref [10], [11], [38]; cited from earlier work
AMY3 (CTR + RAMP3) = settings: receptor AMY3, CTR + RAMP3; ref [10], [11], [38]; cited from earlier work
AMY1 (CTR + RAMP1) = settings: receptor AMY1, CTR + RAMP1; ref [10], [11], [38]; cited from earlier work
JK2 cell line = experiment: cAMP accumulation, CTR agonists, JK2; format: cell-based, human; settings: 30 min, 3 to 5 independent experiments in triplicate
Procedure: as §1, with “medium). Cells were cultured in 5% CO2 / 95% humidified air at 37 °C.” for “medium).”
(§2) GBM cell lines were seeded at 38000 cells/well (SB2b) or 35,000 cells/well (PB1, JK2 and WK1) in 96-well matrigel-coated plates and incubated for 24 h at 37°C, 5% CO2 in humidified incubator in StemPro complete medium. Media was replaced with stimulation buffer (phenol red free F12 media, 0.1% BSA, 0.5 mM IBMX, pH 7.4). […] Cells were lysed (0.3% Tween 20, 5 mM Hepes, 0.1% BSA, pH 7.4) and 5 μl of cell lysate from each well was transferred to a corresponding well of 384-well optiplate. Intracellular cAMP levels in the wells were determined using Lance Ultra cAMP assay kit (Perkin Elmer) according to the manufacturer’s instructions and detected using an Envision multilabel 2103 reader. Raw RFU values were converted using a cAMP standard curve to give absolute cAMP concentrations. Data were analysed by three-parameter logistic curve and are presented as percentage of 10^− 5 M forskolin response.

WK1 cell line [2] = experiment: cAMP accumulation, CTR agonists, WK1; format: cell-based, human; settings: 30 min, agonist 10^-12-10^-6 M, 3 to 5 independent experiments in triplicate
Procedure: as §1, with “medium). Cells were cultured in 5% CO2 / 95% humidified air at 37 °C.” for “medium).”
GBM cell lines were seeded at 38000 cells/well (SB2b) or 35,000 cells/well (PB1, JK2 and WK1) in 96-well matrigel-coated plates and incubated for 24 h at 37°C, 5% CO2 in humidified incubator in StemPro complete medium. Media was replaced with stimulation buffer (phenol red free F12 media, 0.1% BSA, 0.5 mM IBMX, pH 7.4). […] Intracellular cAMP levels in the wells were determined using Lance Ultra cAMP assay kit (Perkin Elmer) according to the manufacturer’s instructions and detected using an Envision multilabel 2103 reader. […] Data were analysed by three-parameter logistic curve and are presented as percentage of 10^− 5 M forskolin response.

WK1 cell line [3] = experiment: Ca2+ mobilization, WK1; format: cell-based, human; settings: Fluo4-AM, FlexStation, 37 °C, pH 7.4, peak RFU, ATP 10 μM, ionomycin 1 μM, representative experiment, 3 replicates
Procedure: (§4) Primary patient high-grade glioma (HGG) cell lines, in vitro surrogates of glioblastoma, were developed by QIMR-Berghofer Medical Research Institute (Brisbane, Australia) and represent 3 distinct GBM subtypes: SB2b and PB1 (classical), JK2 (proneural) and WK1(mesenchymal) [37], who supplied these directly for this study. GBM cell lines were cultured as adherent monolayers on matrigel (BD Biosciences)-coated flasks using StemPro NSC SFM serum free cell culture medium (Thermo Fisher Scientific) supplemented with 20 ng/ml EGF and 20 ng/ml FGFb, 1% D-glutamine and 1% of penicillin/ streptomycin (further referred as StemPro complete medium).
(§5) GBM cell lines were seeded at 38000 cells/well (SB2b) or 35,000 cells/well (PB1 and WK1) in 96-well matrigel-coated plates and incubated for 24 h at 37 °C, 5% CO2 in humidified incubator in StemPro complete medium. […] Cells were incubated at 37°C for 60 min before ligand addition and detection of Ca^2+ mobilisation in a FlexStation 3 (Molecular Devices).

PB1 cell line [4] = experiment: Ca2+ mobilization, PB1; format: cell-based, human; settings: Fluo4-AM, FlexStation, 37 °C, pH 7.4, peak RFU, ATP 10 μM, ionomycin 1 μM, representative experiment, 3 replicates
Procedure: as §4, §5

SB2b cell line [5] = experiment: Ca2+ mobilization, SB2b; format: cell-based, human; settings: Fluo4-AM, FlexStation, 37 °C, pH 7.4, peak RFU, ATP 10 μM, ionomycin 1 μM, representative experiment, 3 replicates
Procedure: as §4, §5

PB1 cell line [6] = experiment: cAMP accumulation, CTR agonists, PB1; format: cell-based, human; settings: 30 min, 3 to 5 independent experiments in triplicate
Procedure: as §1, with “medium). Cells were cultured in 5% CO2 / 95% humidified air at 37 °C.” for “medium).”
as §2

[7] = tested on: mouse thymic lymphoma models; settings: CTR expressed as an amylin receptor, ref [18], [19]; cited from earlier work
Description: (§3) Research on the role of CTR expression in cancer has been fragmentary and any role for CTR in cancer pathology seems to be entirely dependent on the cancer type. For instance, in human breast cancer model cell lines with high constitutive ERK (Extracellular Signal Regula ...

[8] = tested on: human prostate cancer cell line PC3; settings: ref [14], [15]; cited from earlier work
Description: as §3

[9] = tested on: MDA-MB-231 xenograft tumours; settings: ref [13]; cited from earlier work
Description: as §3

CC[C@H](C)[C@H](NC(=O)[C@H](CCC(N)=O)NC(=O)[C@H](Cc1c[nH]cn1)NC(=O)[C@H](C)NC(=O)[C@H](CC(C)C)NC(=O)[C@H](CCCCN)NC(=O)[C@H](CCC(N)=O)NC(=O)[C@@H](NC(=O)[C@@H](NC(=O)[C@@H]1CSSC[C@H](NC(=O)CNC(=O)[C@H](Cc2ccccc2)NC(=O)[C@H](CO)NC(=O)[C@H](CCCNC(=N)N)NC(=O)[C@H](CC(C)C)NC(=O)CNC(=O)[C@H](CCC(N)=O)NC(=O)[C@H](Cc2ccccc2)NC(=O)[C@H](CC(N)=O)NC(=O)[C@H](CC(N)=O)NC(=O)[C@H](CCSC)NC(=O)[C@H](CO)NC(=O)[C@H](CCC(N)=O)NC(=O)[C@H](CCCNC(=N)N)NC(=O)[C@@H](N)Cc2ccc(O)cc2)C(=O)N[C@@H](CCCNC(=N)N)C(=O)N[C@@H](Cc2ccccc2)C(=O)NCC(=O)N[C@@H]([C@@H](C)O)C(=O)N1)[C@@H](C)O)C(C)C)C(=O)N[C@@H](Cc1ccc(O)cc1)C(=O)N[C@@H](CCC(N)=O)C(=O)N[C@@H](Cc1ccccc1)C(=O)N[C@H](C(=O)N[C@@H](CC(=O)O)C(=O)N[C@@H](CCCCN)C(=O)N[C@@H](CC(=O)O)C(=O)N[C@@H](CCCCN)C(=O)N[C@@H](CC(=O)O)C(=O)N[C@@H](CC(N)=O)C(=O)N[C@H](C(=O)N[C@@H](C)C(=O)N1CCC[C@H]1C(=O)N[C@@H](CCCNC(=N)N)C(=O)N[C@@H](CO)C(=O)N[C@@H](CCCCN)C(=O)N[C@H](C(=O)N[C@@H](CO)C(=O)N1CCC[C@H]1C(=O)N[C@@H](CCC(N)=O)C(=O)NCC(=O)N[C@@H](Cc1ccc(O)cc1)C(N)=O)[C@@H](C)CC)C(C)C)[C@@H](C)O [AM, Adrenomedullin]
cAMP response to αCGRP, adrenomedullin (and weak amylin response) (SB2b cell line [1]): Weak responses
Peptides rank order of potency (human) (AM2 (CLR + RAMP3)): AM ≥ intermedin ≥ α-CGRP > AMY > SCT
Peptides rank order of potency (human) (AM1 (CLR + RAMP2)): AM > intermedin > α-CGRP, AMY > sCT
Peptides rank order of potency (human) (CTR): sCT ≥ hCT > AMY, αCGRP > AM, intermedin
Peptides rank order of potency (human) (CGRP (CLR + RAMP1)): αCGRP > AM ≥ intermedin > AMY ≥ sCT
Peptides rank order of potency (human) (AMY3 (CTR + RAMP3)): sCT ≥ AMY > αCGRP > intermedin ≥ hCT > AM
Peptides rank order of potency (human) (AMY1 (CTR + RAMP1)): sCT ≥ AMY ≥ αCGRP > intermedin ≥ hCT > AM

CC(C)C[C@H](NC(=O)[C@H](CC(N)=O)NC(=O)[C@H](CC(N)=O)NC(=O)[C@H](CO)NC(=O)[C@H](CO)NC(=O)[C@H](CCCNC(=N)N)NC(=O)[C@@H](NC(=O)[C@H](CC(C)C)NC(=O)[C@H](Cc1ccccc1)NC(=O)[C@H](CC(N)=O)NC(=O)[C@H](C)NC(=O)[C@H](CC(C)C)NC(=O)[C@H](CCCNC(=N)N)NC(=O)[C@H](CCC(N)=O)NC(=O)[C@@H](NC(=O)[C@H](C)NC(=O)[C@@H]1CSSC[C@H](NC(=O)[C@@H](N)CCCCN)C(=O)N[C@@H](CC(N)=O)C(=O)N[C@@H]([C@@H](C)O)C(=O)N[C@@H](C)C(=O)N[C@@H]([C@@H](C)O)C(=O)N1)[C@@H](C)O)C(C)C)C(=O)NCC(=O)N1CCC[C@H]1C(=O)N[C@H](C(=O)N[C@@H](CC(C)C)C(=O)N1CCC[C@H]1C(=O)N1CCC[C@H]1C(=O)N[C@H](C(=O)N[C@@H](CC(N)=O)C(=O)N[C@H](C(=O)NCC(=O)N[C@@H](CO)C(=O)N[C@@H](CC(N)=O)C(=O)N[C@H](C(=O)N[C@@H](Cc1ccc(O)cc1)C(N)=O)[C@@H](C)O)C(C)C)[C@@H](C)O)C(C)C [amylin, Amylin]
cAMP response to αCGRP, adrenomedullin (and weak amylin response) (SB2b cell line [1]): Weak responses
cAMP response (JK2 cell line; agonist 10^-12-10^-6 M): very weak response
pEC50, cAMP accumulation (JK2 cell line; CTR agonists, 37 °C, S.E.M.): 5.9 ± 0.5
cAMP response (WK1 cell line [2]): very weak response
intracellular Ca2+ mobilisation response (WK1 cell line [3]): unable to detect functional CTR response
intracellular Ca2+ mobilisation response (WK1 cell line [3]; listed as rAMY): Absence of intracellular calcium mobilization response
intracellular Ca2+ mobilisation response (PB1 cell line [4]): unable to detect functional CTR response
intracellular Ca2+ mobilisation response (PB1 cell line [4]; listed as rAMY): Absence of intracellular calcium mobilization response
intracellular Ca2+ mobilisation response (SB2b cell line [5]): unable to detect functional CTR response
intracellular Ca2+ mobilisation response (SB2b cell line [5]; listed as rAMY): Absence of intracellular calcium mobilization response
cAMP response (PB1 cell line [6]; agonist 10^-12-10^-6 M): very weak response
pEC50, cAMP accumulation (PB1 cell line [6]; CTR agonists, 37 °C, S.E.M.): 6.1 ± 0.5
metabolic reprogramming [7]: metabolic reprogramming (switch from glycolysis to oxidative phosphorylation)
susceptibility to apoptosis [7]: increased susceptibility to apoptosis

Amylin
Peptides rank order of potency (human) (AM2 (CLR + RAMP3)): AM ≥ intermedin ≥ α-CGRP > AMY > SCT
Peptides rank order of potency (human) (AM1 (CLR + RAMP2)): AM > intermedin > α-CGRP, AMY > sCT
Peptides rank order of potency (human) (CTR): sCT ≥ hCT > AMY, αCGRP > AM, intermedin
Peptides rank order of potency (human) (CGRP (CLR + RAMP1)): αCGRP > AM ≥ intermedin > AMY ≥ sCT
Peptides rank order of potency (human) (AMY3 (CTR + RAMP3)): sCT ≥ AMY > αCGRP > intermedin ≥ hCT > AM
Peptides rank order of potency (human) (AMY1 (CTR + RAMP1)): sCT ≥ AMY ≥ αCGRP > intermedin ≥ hCT > AM

Calcitonin (peptide) (CGNLSTCMLGTYTQDFNKFHTFPQTAIGVGAP; ends and bridges not checked; cysteine pairing not given here; UniProt P01258 85-116, looked up) [CT]
apoptosis [8]: inhibits apoptosis
tumour growth and invasiveness [8]: stimulates tumour growth and invasiveness
growth of xenograft tumours [9]: inhibits the growth
